# From US8129527B2, “Analogs of dehydrophenylahistins and their therapeutic use” (Nereus Pharmacuticals, Inc., priority 2006, dated 2012)
# Tested on: HT-29 cells
# Assay: Additional cytotoxicity assays, resazurin (Table 3.1)
# Format: cell-based, human
# Conditions: Homo sapiens, HT-29, read-out: EC50 (M) Mean
# Protocol: 10× concentrated serial dilutions of the two compounds were prepared in appropriate culture medium for final concentrations ranging from 2.0×10^−5 M to 2.0×10^−10 M. Ten μl volumes of the 10× serial dilutions were added to the test wells in triplicate and the plates returned to the incubator for 48 hours.
# Following 48 hours of drug exposure 10 μl of 0.2 mg/ml resazurin (obtained from Sigma-Aldrich Chemical Co.) in Mg^2+, Ca^2+ free PBS was added to each well and the plates were returned to the incubator for 3-4 hours. […] Resazurin dye without cells was used to determine the background, which was subtracted from the data for all experimental wells. The data were analyzed using Prism software (GraphPad Software).
# Additional cytotoxicity assays were performed as described above under this example, using Resazurin fluorescence as an indicator of cell viability.
row,SMILES,EC50 [M]
1,"CC(C)(C)c1[nH]cnc1/C=c1\[nH]c(=O)/c(=C/c2ccccc2)[nH]c1=O [Compound 2358, t-butyl-delta-PLH]",1.49e-08
2,"COc1cc(/C=c2\[nH]c(=O)/c(=C/c3nc[nH]c3C(C)(C)C)[nH]c2=O)cc(OC)c1OC [Compound 2362, tBu-ΔPLH-3,4,5-triOMe]",8.19e-06
3,"CC(C)(C)c1[nH]cnc1/C=c1\[nH]c(=O)/c(=C/c2ccc(Cl)s2)[nH]c1=O [Compound 2412, tBu-delta-PLH-5-Cl-2-thionyl]",1.65e-07

# Same assay, conditions: Homo sapiens, HT-29; Table 3.1; read-out: EC50 (M) Mean
row,SMILES,EC50 [M]
1,"C=CC(C)(C)c1[nH]cnc1/C=C1\N=C(OC)C(Cc2ccccc2)N=C1OC (racemic) [Compound 2354, D,L-bislactim-PLH]",> 2e-05
2,"C=CC(C)(C)c1[nH]cnc1/C=C1\NC(=O)C(Cc2ccccc2)N=C1OC (racemic) [Compound 2355, D,L-monolactim-PLH]",> 2e-05
3,"C=CC(C)(C)c1[nH]cnc1/C=C1\NC(=O)[C@H](Cc2ccccc2)NC1=O [Compound 2350, (−)-(S)-Halimide, (−)-(S)-Phenylahistin, (−)-(S)-PLH, reference compound]",3.94e-07
4,"C=CC(C)(C)c1[nH]cnc1/C=c1\[nH]c(=O)/c(=C/c2ccccc2)[nH]c1=O [Compound 2352, Dehydrophenylahistin]",4.26e-08
5,C=CC(C)(C)c1[nH]cnc1/C=c1\[nH]c(=O)/c(=C\c2ccc(OC)cc2)[nH]c1=O [Compound 2357],8.25e-06
6,"COc1cc(/C=c2\[nH]c(=O)/c(=C/c3nc[nH]c3C(C)(C)C)[nH]c2=O)cc(OC)c1 [Compound 2367, tBu-delta-3,5-diOMe]",4.54e-08
7,"COc1ccc(/C=c2\[nH]c(=O)/c(=C/c3nc[nH]c3C(C)(C)C)[nH]c2=O)c(OC)c1OC [Compound 2368, tBu-delta-PLH-2,3,4-triOMe]",4.8e-06
8,"CC(C)(C)c1[nH]cnc1/C=c1\[nH]c(=O)/c(=C/c2cc([N+](=O)[O-])ccc2Cl)[nH]c1=O [Compound 2371, tBu-delta-PLH-2-Cl-5-NO2]",5.34e-08
9,"CC(C)(C)c1[nH]cnc1/C=c1\[nH]c(=O)/c(=C/c2ccc3c(c2)OCO3)[nH]c1=O [Compound 2372, tBu-delta-PLH-3,4-methylene-dioxy]",8.73e-08
10,"COc1cccc(/C=c2\[nH]c(=O)/c(=C/c3nc[nH]c3C(C)(C)C)[nH]c2=O)c1O [Compound 2373, tBu-delta-PLH-2-OH-3-OMe (o-vanillin)]",5.36e-06
11,"COc1cccc2cc3c(=O)[nH]/c(=C\c4nc[nH]c4C(C)(C)C)c(=O)n3c12 [Compound 2374, tBu-delta-PLH-cyclized-3-MeO]",6.92e-06
12,"Cc1ccc(/C=c2\[nH]c(=O)/c(=C/c3nc[nH]c3C(C)(C)C)[nH]c2=O)s1 [Compound 2378, tBu-delta-PLH-5-Me-2-thienyl]",8.52e-08
13,"Cc1ccsc1/C=c1\[nH]c(=O)/c(=C/c2nc[nH]c2C(C)(C)C)[nH]c1=O [Compound 2379, tBu-delta-PLH-3-Me-2-thienyl]",4.7e-08
14,"CC(C)(C)c1[nH]cnc1/C=c1\[nH]c(=O)/c(=C/c2cccc3c2OCO3)[nH]c1=O [Compound 2381, tBu-delta-PLH-2,3-methylendioxy]",5.2e-07
15,"Cc1cccc(/C=c2\[nH]c(=O)/c(=C/c3nc[nH]c3C(C)(C)C)[nH]c2=O)n1 [Compound 2384, tBu-delta-PLH-3-Me-2-pyridyl]",> 2e-05
16,"Cc1[nH]cnc1/C=c1\[nH]c(=O)/c(=C/c2nc[nH]c2C(C)(C)C)[nH]c1=O [Compound 2387, tBu-delta-PLH-5-Me-4-im]",2.35e-06

row,SMILES,EC50 [M]
1,"CC(C)(C)c1[nH]cnc1/C=c1\[nH]c(=O)/c(=C/c2ccc(C#N)cc2)[nH]c1=O [Compound 2394, tBu-delta-PLH-p-CN]",> 2e-05
2,"COc1cc(OC)c(/C=c2\[nH]c(=O)/c(=C/c3nc[nH]c3C(C)(C)C)[nH]c2=O)c(OC)c1 [Compound 2396, tBu-delta-PLH-2,4,6-TriOMe]",> 2e-05
3,"CC(C)(C)c1[nH]cnc1/C=c1\[nH]c(=O)/c(=C/c2cc(Cl)ccc2[N+](=O)[O-])[nH]c1=O [Compound 2403, tBu-delta-PLH-2-NO2-5-Cl]",9.97e-08
4,"COc1ccc(O)c(/C=c2\[nH]c(=O)/c(=C/c3nc[nH]c3C(C)(C)C)[nH]c2=O)c1 [Compound 2405, tBu-delta-PLH-2-OH-5-OMe]",> 2e-05
5,"CC(C)(C)c1[nH]cnc1/C=c1\[nH]c(=O)/c(=C/c2cc(Br)ccc2O)[nH]c1=O [Compound 2407, tBu-delta-PLH-2-OH-5-Br]",> 2e-05
6,"COc1ccc(/C=c2\[nH]c(=O)/c(=C/c3nc[nH]c3C(C)(C)C)[nH]c2=O)cc1O [Compound 2408, tBu-delta-PLH-3-OH-4-OMe]",7.48e-06
7,"COc1ccc(/C=c2\[nH]c(=O)/c(=C/c3nc[nH]c3C(C)(C)C)[nH]c2=O)c(O)c1 [Compound 2409, tBu-delta-PLH-2-OH-4-OMe]",> 2e-05
8,"CC(C)(C)c1[nH]cnc1/C=c1\[nH]c(=O)/c(=C/c2cc(Cl)ccc2O)[nH]c1=O [Compound 2410, tBu-delta-PLH-2-OH-5-Cl]",> 2e-05
9,"Cn1cccc1/C=c1\[nH]c(=O)/c(=C/c2nc[nH]c2C(C)(C)C)[nH]c1=O [Compound 2414, tBu-delta-PLH-N-Me-2-pyrrole]",1.17e-07
10,"CC(C)(C)c1[nH]cnc1/C=c1\[nH]c(=O)/c(=C/c2cc(Cl)cc(Cl)c2)[nH]c1=O [Compound 2415, tBu-delta-PLH-3,5-diCl]",9.49e-08
11,"CC(C)(C)c1ccc(O)c(/C=c2\[nH]c(=O)/c(=C/c3ccccc3)[nH]c2=O)c1 [Compound 2422, tBu-delta-PLH-2-Hydroxybenzyl]",> 2e-05
12,"CC(C)(C)c1[nH]cnc1/C=c1\[nH]c(=O)/c(=C/c2cc(Br)cs2)[nH]c1=O [Compound 2423, tBu-delta-PLH-4-Br-2-thionyl]",1.71e-07
13,"CCc1ccc(/C=c2\[nH]c(=O)/c(=C/c3nc[nH]c3C(C)(C)C)[nH]c2=O)s1 [Compound 2424, tBu-delta-PLH-5-Et-2-thionyl]",1.32e-07
14,"CC(C)(C)c1[nH]cnc1/C=c1\[nH]c(=O)/c(=C/c2ccc(Br)o2)[nH]c1=O [Compound 2425, tBu-delta-PLH-5-Br-2-furyl]",3.05e-08
15,"CCc1ccc(/C=c2\[nH]c(=O)/c(=C/c3nc[nH]c3C(C)(C)C)[nH]c2=O)o1 [Compound 2426, tBu-delta-PLH-5-Et-2-furyl]",2.42e-07

# Same assay, conditions: Table 3.1
row,SMILES,% cytotox Mean [%]
1,"C=CC(C)(C)c1[nH]cnc1/C=C1\N=C(OC)C(Cc2ccccc2)N=C1OC (racemic) [Compound 2354, D,L-bislactim-PLH]",4
2,"C=CC(C)(C)c1[nH]cnc1/C=C1\NC(=O)C(Cc2ccccc2)N=C1OC (racemic) [Compound 2355, D,L-monolactim-PLH]",13
3,"C=CC(C)(C)c1[nH]cnc1/C=C1\NC(=O)[C@H](Cc2ccccc2)NC1=O [Compound 2350, (−)-(S)-Halimide, (−)-(S)-Phenylahistin, (−)-(S)-PLH, reference compound]",87
4,"C=CC(C)(C)c1[nH]cnc1/C=c1\[nH]c(=O)/c(=C/c2ccccc2)[nH]c1=O [Compound 2352, Dehydrophenylahistin]",86
5,C=CC(C)(C)c1[nH]cnc1/C=c1\[nH]c(=O)/c(=C\c2ccc(OC)cc2)[nH]c1=O [Compound 2357],63
6,"CC(C)(C)c1[nH]cnc1/C=c1\[nH]c(=O)/c(=C/c2ccccc2)[nH]c1=O [Compound 2358, t-butyl-delta-PLH]",86
7,"COc1cc(/C=c2\[nH]c(=O)/c(=C/c3nc[nH]c3C(C)(C)C)[nH]c2=O)cc(OC)c1OC [Compound 2362, tBu-ΔPLH-3,4,5-triOMe]",78
8,"COc1cc(/C=c2\[nH]c(=O)/c(=C/c3nc[nH]c3C(C)(C)C)[nH]c2=O)cc(OC)c1 [Compound 2367, tBu-delta-3,5-diOMe]",87
9,"COc1ccc(/C=c2\[nH]c(=O)/c(=C/c3nc[nH]c3C(C)(C)C)[nH]c2=O)c(OC)c1OC [Compound 2368, tBu-delta-PLH-2,3,4-triOMe]",78
10,"CC(C)(C)c1[nH]cnc1/C=c1\[nH]c(=O)/c(=C/c2cc([N+](=O)[O-])ccc2Cl)[nH]c1=O [Compound 2371, tBu-delta-PLH-2-Cl-5-NO2]",86
11,"CC(C)(C)c1[nH]cnc1/C=c1\[nH]c(=O)/c(=C/c2ccc3c(c2)OCO3)[nH]c1=O [Compound 2372, tBu-delta-PLH-3,4-methylene-dioxy]",84
12,"COc1cccc(/C=c2\[nH]c(=O)/c(=C/c3nc[nH]c3C(C)(C)C)[nH]c2=O)c1O [Compound 2373, tBu-delta-PLH-2-OH-3-OMe (o-vanillin)]",79
13,"COc1cccc2cc3c(=O)[nH]/c(=C\c4nc[nH]c4C(C)(C)C)c(=O)n3c12 [Compound 2374, tBu-delta-PLH-cyclized-3-MeO]",58
14,"Cc1ccc(/C=c2\[nH]c(=O)/c(=C/c3nc[nH]c3C(C)(C)C)[nH]c2=O)s1 [Compound 2378, tBu-delta-PLH-5-Me-2-thienyl]",85
15,"Cc1ccsc1/C=c1\[nH]c(=O)/c(=C/c2nc[nH]c2C(C)(C)C)[nH]c1=O [Compound 2379, tBu-delta-PLH-3-Me-2-thienyl]",86
16,"CC(C)(C)c1[nH]cnc1/C=c1\[nH]c(=O)/c(=C/c2cccc3c2OCO3)[nH]c1=O [Compound 2381, tBu-delta-PLH-2,3-methylendioxy]",82
17,"Cc1cccc(/C=c2\[nH]c(=O)/c(=C/c3nc[nH]c3C(C)(C)C)[nH]c2=O)n1 [Compound 2384, tBu-delta-PLH-3-Me-2-pyridyl]",37

row,SMILES,% cytotox Mean [%]
1,"Cc1[nH]cnc1/C=c1\[nH]c(=O)/c(=C/c2nc[nH]c2C(C)(C)C)[nH]c1=O [Compound 2387, tBu-delta-PLH-5-Me-4-im]",84
2,"CC(C)(C)c1[nH]cnc1/C=c1\[nH]c(=O)/c(=C/c2ccc(C#N)cc2)[nH]c1=O [Compound 2394, tBu-delta-PLH-p-CN]",14
3,"COc1cc(OC)c(/C=c2\[nH]c(=O)/c(=C/c3nc[nH]c3C(C)(C)C)[nH]c2=O)c(OC)c1 [Compound 2396, tBu-delta-PLH-2,4,6-TriOMe]",2
4,"CC(C)(C)c1[nH]cnc1/C=c1\[nH]c(=O)/c(=C/c2cc(Cl)ccc2[N+](=O)[O-])[nH]c1=O [Compound 2403, tBu-delta-PLH-2-NO2-5-Cl]",86
5,"COc1ccc(O)c(/C=c2\[nH]c(=O)/c(=C/c3nc[nH]c3C(C)(C)C)[nH]c2=O)c1 [Compound 2405, tBu-delta-PLH-2-OH-5-OMe]",25
6,"CC(C)(C)c1[nH]cnc1/C=c1\[nH]c(=O)/c(=C/c2cc(Br)ccc2O)[nH]c1=O [Compound 2407, tBu-delta-PLH-2-OH-5-Br]",13
7,"COc1ccc(/C=c2\[nH]c(=O)/c(=C/c3nc[nH]c3C(C)(C)C)[nH]c2=O)cc1O [Compound 2408, tBu-delta-PLH-3-OH-4-OMe]",66
8,"COc1ccc(/C=c2\[nH]c(=O)/c(=C/c3nc[nH]c3C(C)(C)C)[nH]c2=O)c(O)c1 [Compound 2409, tBu-delta-PLH-2-OH-4-OMe]",8
9,"CC(C)(C)c1[nH]cnc1/C=c1\[nH]c(=O)/c(=C/c2cc(Cl)ccc2O)[nH]c1=O [Compound 2410, tBu-delta-PLH-2-OH-5-Cl]",37
10,"CC(C)(C)c1[nH]cnc1/C=c1\[nH]c(=O)/c(=C/c2ccc(Cl)s2)[nH]c1=O [Compound 2412, tBu-delta-PLH-5-Cl-2-thionyl]",85
11,"Cn1cccc1/C=c1\[nH]c(=O)/c(=C/c2nc[nH]c2C(C)(C)C)[nH]c1=O [Compound 2414, tBu-delta-PLH-N-Me-2-pyrrole]",88
12,"CC(C)(C)c1[nH]cnc1/C=c1\[nH]c(=O)/c(=C/c2cc(Cl)cc(Cl)c2)[nH]c1=O [Compound 2415, tBu-delta-PLH-3,5-diCl]",87
13,"CC(C)(C)c1ccc(O)c(/C=c2\[nH]c(=O)/c(=C/c3ccccc3)[nH]c2=O)c1 [Compound 2422, tBu-delta-PLH-2-Hydroxybenzyl]",14
14,"CC(C)(C)c1[nH]cnc1/C=c1\[nH]c(=O)/c(=C/c2cc(Br)cs2)[nH]c1=O [Compound 2423, tBu-delta-PLH-4-Br-2-thionyl]",86
15,"CCc1ccc(/C=c2\[nH]c(=O)/c(=C/c3nc[nH]c3C(C)(C)C)[nH]c2=O)s1 [Compound 2424, tBu-delta-PLH-5-Et-2-thionyl]",87
16,"CC(C)(C)c1[nH]cnc1/C=c1\[nH]c(=O)/c(=C/c2ccc(Br)o2)[nH]c1=O [Compound 2425, tBu-delta-PLH-5-Br-2-furyl]",87
17,"CCc1ccc(/C=c2\[nH]c(=O)/c(=C/c3nc[nH]c3C(C)(C)C)[nH]c2=O)o1 [Compound 2426, tBu-delta-PLH-5-Et-2-furyl]",86
